# Literature values, collected in patent publication US10308909B2, “Dried spore germinative compound mixtures” (Envera, LLC, priority 2013, dated 2019).
# Legend:
# bacterial spores = details: concentrations as low as
Compound,inhibition of Bacillus germination (Bacillus),concentration that inhibits germination (bacterial spores)
C[C@@H](N)C(=O)O [D-alanine],powerful inhibitor of Bacillus germination,
Oc1ccccc1 [phenol],,0.2 % (wt./vol)
cresol,,0.08 % (wt./vol)
